Assay results as given in patent publication US11229662B2, “Compositions and methods for the treatment of aberrant angiogenesis” (The Schepens Eye Research Institute, Inc., priority 2016, dated 2022).
“Also recorded” adds a separate entry of the source.

Experiments:
[1] = test system: HRMEC; experiment: Ki67 proliferation assay; type: cell-based, human
Procedure: FVMs and cells were incubated with mouse anti-RUNX1 (Santa Cruz) followed by biotinylated secondary antibody (Vector Laboratories), horseradish peroxidase (HRP)-labeled avidin (PerkinElmer), tyramide signal amplification (TSA, PerkinElmer), Vector Red chromogenic substrate (Vector Laboratories) and Gill no. 3 hematoxylin counterstain (Sigma-Aldrich). Immunofluorescent staining for CD31 (mouse anti-CD31; Dako) and Ki67 (rabbit anti-Ki67; Novus Biologicals) was performed as previously described (Kim L A, et al. (2015) Mol Vis 21:673-687). The number of Ki67 positive nuclei was averaged for three fields of view per sample at 20× magnification.
HRMEC were probed for proliferation with the Ki67 marker as follows: cells were permeabilized with 0.5% Triton X-100 in PBS for 5 min, blocked with 5% goat serum in PBS for 2 h at room temperature, incubated with primary antibody overnight at 4° C. (rabbit anti-Ki67 1:50; Novus Biologicals), and incubated with secondary for 2 h at room temperature (goat anti-rabbit Alexa Fluor 594 1:250; Life Technologies Corp.). Samples were imaged using an EVOS® imaging system. The number of Ki67 positive nuclei was averaged for three fields of view per sample at 20× magnification.

[2] = HIV treatment trial, Haubrich et al. (1995); cited from earlier work
[3] = test system: RUNX1 protein; experiment: Western blot of RUNX1 protein; type: cell-based, human; conditions: 72 hours
Procedure: FIG. 13 is an image showing that a commercially available small molecule PIM3 inhibitor (PIM3 kinase inhibitor VII from EMD Millipore) reduced total RUNX1 protein levels in primary culture retinal endothelial cells in normal and high glucose conditions. Human microvascular retinal endothelial cells were cultured in EGM-2 supplemented with different concentrations of D-glucose for 72 hours in the presence of PIM3 inhibitor (PIM3 kinase inhibitor VII from EMD Millipore, Cat No. 526526, 0.05 μM) or vehicle (DMSO). After harvest, proteins were extracted using RIPA buffer and analyzed by western blot. RUNX1 was detected using antibodies from Santacruz (sc-365644). β-actin was used as a loading control.
FIG. 19 is set of images showing that gamma-secretase inhibition using Compound E small molecule (100 nM) reduces the expression of RUNX1 in primary culture human microvascular endothelial cells. […]
Western Blot Analysis: Cells were lysed using RIPA buffer (Cell Signaling Technology (CST)). […] Immunoreactive bands were visualized using the Odyssey Infrared Imaging System and band intensities normalized to β-actin were quantified using Image Studio version 2.1 (LI-COR).

[4] = test system: HES1; experiment: qRT-PCR of HES1 expression; type: cell-based, human; conditions: 100 nM; 72 hours; 5 mM and 30 mM D-glucose; vs DMSO
Procedure: FIG. 18 is a graph showing that gamma-secretase inhibition using Compound E small molecule (100 nM) reduced the expression of HES1, a canonical downstream target for Notch activity and RUNX1 in primary culture human microvascular endothelial cells. Reduction of HES1 and RUNX1 expression was effective under normal glucose (5 mM D-glucose and high glucose 30 mM D-glucose). Cells were incubated with Compound E or DMSO vehicle control in different glucose concentrations for 72 hours before harvest followed by qRT-PCR for each gene. HPRT1 expression was used as control.
(§1) RNA was extracted using RNeasy Mini Kits (Qiagen). Primers were purchased from Integrated DNA Technologies for 200 candidate genes (Table 4). Genes were excluded from further analysis if there was no amplification or amplification was outside the linear range. […] Fluorescent intensities were normalized to spike-in controls (ERCC RNA Spike-In Mix; Life Technologies), HPRT1, and B2M.

[5] = test system: RUNX1; experiment: qRT-PCR of RUNX1 expression; type: cell-based, human
Procedure: (§2) FVMs were collected and CD31+ cells were isolated as previously described [Kim L A, et al. (2015) Mol Vis 21:673-687]. RNA-sequencing was performed using an Illumina HiSeq 2000 (Illumina Inc.), aligned with TopHat (Trapnell et al. (2009) Bioinformatics 25(9):1105-1111], and analyzed using Partek Flow, CuffLinks, EdgeR, and DESeq2. A mixed model ANOVA was used with a threshold false discovery rate (FDR) of <0.05 and fold change >±2 for significance. Gene Ontology was determined using the Database for Annotation, Visualization, and Integrated Discovery (DAVID). […] FVMs and cells were immunostained with standard protocols for paraffin embedded samples.
(§3) siRNA ([…]) (Integrated DNA Technologies; sequences in Table 4) was transfected for 6-8 h using DharmaFECT 1 (GE Life Sciences—Dharmacon) in Opti-MEM (Life Technologies).
as §1

[6] = test system: HRMEC; experiment: Tube forming assay; type: cell-based, human
Procedure: HRMEC were treated overnight with 75 μM Ro5-3335 or DMSO before plating 20000 cells onto wells pre-coated with basement membrane extract (Trevigen). Cells were imaged six h after plating and tube formation was quantified using the Angiogenesis Analyzer plugin for ImageJ.

[7] = test system: C57BL/6J mice with OIR; experiment: Oxygen-induced retinopathy (OIR) mouse model, retinal flat mounts; type: in vivo; conditions: P17
Procedure: OIR was induced in wild-type C57BL/6J mice as previously described (Smith L E et al., (1994) Invest Ophthalmol Vis Sci 35(1):101-111). Intravitreal injections with 1 μL of 75 μM Ro5-3335 RUNX1 inhibitor or DMSO were performed on left eyes only at P13 and P15 under ketamine/xylazine anesthesia. Pups were euthanized at P17 and eyes were collected, fixed in 4% paraformaldehyde, and used for retinal flat mounts (nvehicle=7; nRo5-3335=9). Avascular and neovascular areas were quantified using Photoshop as previously described (Connor H M et al., (2009) Nature Protocols 4(11):1565-1573).

[8] = test system: HRMEC; experiment: Scratch-wound migration assay; type: cell-based, human; conditions: for wound closure (scratch assay): siRNA knockdown of RUNX1, 0-12 h
Procedure: as §2
Migration was assessed with the scratch-wound assay (Liang C C et al. (2007) Nature Protocols 2(2):329-333). One scratch was generated per well and imaged on an EVOS® imaging system every three hours for 12 h. Images were analyzed with the TScratch Matlab module (Geback et al. (2009) Biotechniques 46(4):265-274).

[9] = test system: RUNX2; experiment: qRT-PCR of RUNX2 expression; type: cell-based, human; conditions: RUNX1 siRNA; 48 hours post-transfection
Procedure: as §3, §1

[10] = test system: RUNX3; experiment: qRT-PCR of RUNX3 expression; type: cell-based, human; conditions: RUNX1 siRNA; 48 hours post-transfection
Procedure: as §3, §1

[11] = test system: IGFBP3; experiment: qRT-PCR of IGFBP3 expression; type: cell-based, human; conditions: RUNX1 siRNA knockdown
Procedure: as §3, §1
HRMEC were transfected with pCMV5-AML1c (Addgene Plasmid #12426) (the plasmid contains the sequence of RUNX1 encoding 480 amino acids; in the sequences listed herein this corresponds to RUNX1g) or pCMV5 empty vector using the HCAEC Nucleofector kit (VPB-1001; Program S-005) following manufacturer's optimized protocol.

[12] = HRMEC treated overnight with 75 μM Ro5-3335, imaged 6 h after plating, vs DMSO
[13] = intravitreal 75 μM at P13 and P15, vs vehicle

With `N[C@@H]1CCCN(c2c(/C=C3\SC(=O)NC3=O)cccc2-c2ccccc2)C1` [AZD1208] the “reduction in cell migration” value ([1]; treated 48 hours before proliferation assay, Ki67 marker, vs DMSO control) was 43%.
In the case of `CNC1=Nc2ccc(Cl)cc2C(c2ccc[nH]2)=NC1` [Ro24-7429], the “safety in clinical trial” value [2] is given as “safe”.
In the case of `CC/C(=N\NC(=O)c1ccnc(NCCCN2CCOCC2)c1)c1ccc(Cl)cc1O` [PIM3 kinase inhibitor VII, N′-(1-(4-Chloro-2-hydroxyphenyl)propylidene)-2-((3-morpholinopropyl)amino)isonicotinohydrazide], the “total RUNX1 protein levels” value ([3]; 0.05 μM, normal and high glucose, vs DMSO) is reported as “reduced”.
With `C[C@H](NC(=O)Cc1cc(F)cc(F)c1)C(=O)N[C@H]1N=C(c2ccccc2)c2ccccc2N(C)C1=O` [Compound E] the “RUNX1 expression (western blot)” value ([3]; 100 nM, 5 mM and 30 mM D-glucose) was “reduces”, the HES1 expression [4] was “reduced” and the “RUNX1 expression (qRT-PCR)” value ([5]; 100 nM, 72 hours, 5 mM and 30 mM D-glucose, vs DMSO) was “reduced”.
For `O=C1CN=C(c2ccc[nH]2)c2cc(Cl)ccc2N1` [Ro5-3335], the meshes reduction [6, 12] was 46%, the nodes reduction [6, 12] was 35% and the “total tube length reduction” value [6, 12] was 18%. For the same compound, the tube forming capacity ([6]; overnight treatment, 6 h after plating, vs vehicle treated cells) was “reduced tube forming capacity”, the “avascular area (extent of vaso-obliteration)” value [7, 13] was “no significant change; also recorded: non-significant downward trend” and the “neovascularization / neovascular tufts” value [7, 13] was “significant reduction”. The reduction in neovascularization ([7]; intravitreal 1 μL of 75 μM at P13 and P15, vs vehicle treated eyes) was 50%.
For “siRNA-2: second RUNX1 siRNA; probably duplex HSC.RNAI.N001001890.12.1 (SEQ ID NO: 249/250) (chain 1 ACUAGAUGAUCAGACCAAGCCCGGG; chain 2 CCCGGGCUUGGUCUGAUCAUCUAGUUU; listed as RNA, chemistry not fully specified)”, the “wound closure (scratch assay)” value [8] was “functional inhibition”.
In the case of “RUNX1 siRNA: siRNA against human RUNX1, Integrated DNA Technologies; duplex hs.Ri.RUNX1.13.3 (SEQ ID NO: 247/248) (chain 1 CCUUUCAUGUUAAUCAAACAAGUGA; chain 2 UCACUUGUUUGAUUAACAUGAAAGGGA; listed as RNA, chemistry not fully specified)”, the “RUNX2 RNA expression” value [9] is reported as “did not significantly affect; also recorded: no significant changes”, the “reduction of RUNX1 RNA expression” value ([5]; RUNX1 siRNA, 48 hours post-transfection) is reported as 60% and the “RUNX3 RNA expression” value [10] is reported as “did not significantly affect; also recorded: no significant changes”. For the same compound, the “cell number and proliferative capacity (Ki67 staining)” value ([1]; 48 h post transfection, vs transfection reagent alone or scramble siRNA) was “significant reduction”, the “fewer Ki67 positive cells” value ([1]; RUNX1 siRNA transfected EC vs controls) was 60% and the “decrease in wound closure rate” value ([8]; RUNX1 siRNA knockdown, monitored 12 h, vs controls) was 60%. The “wound closure (scratch assay)” value [8] was “effectively inhibits wound closure” and the “increase in IGFBP3 mRNA expression” value [11] was 330%.
